Experimental data reported in PubChem BioAssay (NCI).
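All cell lines were grown in 96-well plates and treated with compound for 48 hours. Definition used: TGI = concentration required for complete inhibition of growth.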

Experiments:
Test in all cases: DTP human tumour cell line panel, 48 h
[1] = test system: CCRF-CEM leukemia
[2] = test system: SK-MEL-28 melanoma
[3] = test system: SW-620 colon
[4] = test system: NCI-H460 lung
[5] = test system: IGROV1 ovarian
[6] = test system: SK-MEL-5 melanoma
[7] = test system: BT-549 breast
[8] = test system: SNB-19 CNS
[9] = test system: RXF 393 renal
[10] = test system: SF-539 CNS
[11] = test system: A498 renal

SMILES	TGI [1] [µM]	TGI [2] [µM]	TGI [3] [µM]	TGI [4] [µM]	TGI [5] [µM]	TGI [6] [µM]	TGI [7] [µM]	TGI [8] [µM]	TGI [9] [µM]	TGI [10] [µM]	TGI [11] [µM]
O=C1CC(O)c2c1csc2Br (centres undefined)	55.1	45.1	37.2	> 100	35.9	> 100	52.9	> 100	38.1		
O=C1CC2C=CC(O)C(C1)C2 (centres undefined)	> 100	> 100	> 100	> 100	> 100			> 100	12.2	> 100	> 100
C#CCNC(=O)NC(CCCNC(=O)OCc1ccccc1)C(=O)OCc1ccccc1 (centres undefined)	> 100	> 100	> 100	> 100	> 100	> 100		> 100	95.2	> 100	> 100
O=C1CC(C(O)CO)CC(=O)N1 (centres undefined)	> 100	> 100	> 100	> 100	> 100	> 100	> 100	> 100		> 100	> 100
COC1O[C@H]2CCN(C(=O)OCc3ccccc3)[C@H]2[C@H]1OCc1ccccc1 (some centres undefined)	> 100	> 100	> 100	> 100	> 100	64.6		> 100	> 100	> 100	> 100
CCOC(=O)C1=C(C)N(c2ccccc2)C2=C(C(=O)N(c3ccccc3)C2c2ccccc2)C1c1ccccc1 (centres undefined)	> 100	> 100	> 100	> 100	> 100	> 100		> 100	> 100	> 100	
CC(C)(C)OC(=O)NCCCCC(NC(=O)OCc1ccccc1)C(N)=O (centres undefined)	> 100	> 100	> 100	> 100	> 100	> 100	> 100	> 100	> 100	> 100	
COC(=O)c1cc(CC(C)C)c2c(c1)[nH]c1ccccc12	> 100	> 100	> 100	> 100	> 100	> 100		> 100		> 100	> 100
Cc1cc(=O)cc2sc3c(C)cccc3nc1-2	59.4	> 100	17.7	57.6	54.9	31.8		> 100	> 100	73.3	41.7
[N-]=[N+]=Nc1c(Cl)c(=O)n(-c2ccccc2)c2ccccc12	56.6	32.1	31	> 100	30.5	18.5	39.2	> 100	30.1	42.3	
CC(C)(C)C(=O)C(CC(=O)c1ccccc1)C(=O)C(C)(C)C	> 100	> 100	> 100	> 100	> 100	> 100		> 100		> 100	> 100
Cc1c(Cl)cccc1NC(=O)C(=O)C1C(=O)CC(C)(C)CC1=O	> 100	> 100	> 100	> 100	> 100	> 100		> 100	> 100	> 100	> 100
Clc1cc(N/N=C(/c2ccccc2)c2ncccn2)ncn1	73.9	> 100	> 100	46.6	36.3	> 100	> 100	> 100	41.4	54.7	
O=C(/C=C/c1ccccc1)/C=C/c1ccccc1O	48.1	81	23.8	39.7	35.7	41.6		61.5	37.3	44.3	70.9
O=c1[nH]cnc2c(C3OC(CO)C(O)C3O)c[nH]c12 (centres undefined)	> 100	> 100	> 100	> 100	> 100	> 100	> 100	> 100	> 100	> 100	
CCOc1ccc(N/C(=C(/C(Cl)=C(/Cl)NCCN)[N+](=O)[O-])n2nnc3ccccc32)cc1	> 100	> 100	21.6	> 100			> 100	> 100		41.9	> 100
Cc1cc2c(c(C(=O)NCCC(=O)O)c1)Oc1c(cc(C)cc1C(=O)NCCC(=O)O)S2	> 100	> 100	> 100		> 100		> 100	> 100	> 100	> 100	
COc1ccc(/C(=C/n2ccnc2)C(=O)c2ccc(OC)c(OC)c2)cc1	> 100	> 100	> 100	> 100		> 100		> 100		> 100	> 100
Cc1c(/C=N\NC(=S)N2CCN(C(=S)N/N=C\c3c(C)n(C)n(-c4ccccc4)c3=O)CC2)c(=O)n(-c2ccccc2)n1C			> 100	> 100		> 100	> 100	> 100	> 100	> 100	> 100
COC(=O)C(C#N)=C1c2ccccc2Oc2ccccc21	> 100	> 100	> 100	> 100	> 100	> 100		> 100	> 100	> 100	> 100
CC1C(c2cc(C(C)(C)C)c(O)c(C(C)(C)C)c2)c2cc3c(cc2OC1N1CCOCC1)OCO3 (centres undefined)	> 100	40.5	> 100	87	> 100	47.3		40.5		43.7	
CC(C)C(Sc1nc(-c2ccccc2)c(-c2ccccc2)[nH]1)C(=O)NNC(=S)Nc1ccccc1 (centres undefined)	38	41.1	33.1	33.9	35.7	25.4		58.6		35.8	44.5
